Source: patent US6358885B1, “Substituted phenylheterocyclic herbicides” (Mississippi State University, priority 1992, dated 2002)

Experiments:
Assay in all cases: Test F preemergence/postemergence greenhouse plant response rating 0 to 100
[1] = test system: ryegrass; format: in vivo, Lolium multiflorum; conditions: POSTEMERGENCE, 0 to 100 scale
Procedure, shortened: (§1)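 Compounds in non-phytotoxic solvent were applied preemergence to sandy loam soil about one day after sowing, and postemergence to plants at the one-to-four leaf stage grown in 60:40 sandy loam/potting mix. After roughly 21 to 28 days in the greenhouse, treated plants were visually rated against untreated controls.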

[2] = test system: lambsquarters; format: in vivo, Chenopodium album; conditions: POSTEMERGENCE, 0 to 100 scale
Procedure, shortened: as §1

[3] = test system: speedwell; format: in vivo, Veronica persica; conditions: POSTEMERGENCE, 0 to 100 scale
Procedure, shortened: as §1

[4] = test system: sunflower; format: in vivo, Helianthus annuus cv. ‘Russian Giant’; conditions: POSTEMERGENCE, 0 to 100 scale
Procedure, shortened: as §1

[5] = test system: wild buckwheat; format: in vivo, Polygonum convolvulus; conditions: POSTEMERGENCE, 0 to 100 scale
Procedure, shortened: as §1

[6] = test system: galium; format: in vivo, Galium aparine; conditions: POSTEMERGENCE, 0 to 100 scale; for Galium (1) plant response rating: stage (1) two to three leaves; for Galium (2) plant response rating: stage (2) approximately four leaves or initial tillering
Procedure, shortened: as §1

[7] = test system: blackgrass; format: in vivo, Alopecurus myosuroides; conditions: POSTEMERGENCE, 0 to 100 scale; for Blackgrass (1) plant response rating: stage (1) two to three leaves; for Blackgrass (2) plant response rating: stage (2) approximately four leaves or initial tillering
Procedure, shortened: as §1

[8] = test system: downy brome; format: in vivo, Bromus tectorum; conditions: POSTEMERGENCE, 0 to 100 scale
Procedure, shortened: as §1

[9] = test system: winter wheat; format: in vivo, Triticum aestivum cv. ‘Talent’; conditions: POSTEMERGENCE, 0 to 100 scale
Procedure, shortened: as §1

[10] = test system: rape; format: in vivo, Brassica napus; conditions: POSTEMERGENCE, 0 to 100 scale
Procedure, shortened: as §1

[11] = test system: sugar beet; format: in vivo, Beta vulgaris cv. ‘USl’; conditions: POSTEMERGENCE, 0 to 100 scale
Procedure, shortened: as §1

[12] = test system: spring wheat; format: in vivo, Triticum aestivum cv. ‘ERA’; conditions: POSTEMERGENCE, 0 to 100 scale
Procedure, shortened: as §1

[13] = test system: wild oat; format: in vivo, Avena fatua; conditions: POSTEMERGENCE, 0 to 100 scale; for Wild oat (1) plant response rating: stage (1) two to three leaves; for Wild oat (2) plant response rating: stage (2) approximately four leaves or initial tillering
Procedure, shortened: as §1

## Fc1cc(Cl)c(OCCCl)cc1-c1nn2c(c1Cl)CCCC2 [Compound 49]
[1]; Rate 2 g/ha
  Ryegrass plant response rating: 0
[1]; Rate 4 g/ha
  Ryegrass plant response rating: 0
[1]; Rate 8 g/ha
  Ryegrass plant response rating: 0
[1]; Rate 16 g/ha
  Ryegrass plant response rating: 0
[1]; Rate 32 g/ha
  Ryegrass plant response rating: 20
[2]; Rate 4 g/ha
  Lambsquarters plant response rating: 50
[2]; Rate 16 g/ha
  Lambsquarters plant response rating: 50
[2]; Rate 32 g/ha
  Lambsquarters plant response rating: 70
[3]; Rate 2 g/ha
  Persn Speedwell plant response rating: 50
[3]; Rate 4 g/ha
  Persn Speedwell plant response rating: 50
[3]; Rate 8 g/ha
  Persn Speedwell plant response rating: 60
[3]; Rate 16 g/ha
  Persn Speedwell plant response rating: 100
[3]; Rate 32 g/ha
  Persn Speedwell plant response rating: 100
[4]; Rate 2 g/ha
  Sunflower plant response rating: 0
[4]; Rate 4 g/ha
  Sunflower plant response rating: 0
[4]; Rate 8 g/ha
  Sunflower plant response rating: 0
[4]; Rate 16 g/ha
  Sunflower plant response rating: 0
[4]; Rate 32 g/ha
  Sunflower plant response rating: 0
[5]; Rate 2 g/ha
  Wild buckwheat plant response rating: 100
[5]; Rate 4 g/ha
  Wild buckwheat plant response rating: 100
[5]; Rate 8 g/ha
  Wild buckwheat plant response rating: 100
[5]; Rate 16 g/ha
  Wild buckwheat plant response rating: 100
[5]; Rate 32 g/ha
  Wild buckwheat plant response rating: 100
[6]; Rate 2 g/ha
  Galium (1) plant response rating: 0
  Galium (2) plant response rating: 0
[6]; Rate 4 g/ha
  Galium (1) plant response rating: 30
  Galium (2) plant response rating: 30
[6]; Rate 8 g/ha
  Galium (1) plant response rating: 35
  Galium (2) plant response rating: 30
[6]; Rate 16 g/ha
  Galium (1) plant response rating: 40
  Galium (2) plant response rating: 40
[6]; Rate 32 g/ha
  Galium (1) plant response rating: 40
  Galium (2) plant response rating: 40
[7]; Rate 2 g/ha
  Blackgrass (1) plant response rating: 0
  Blackgrass (2) plant response rating: 0
[7]; Rate 4 g/ha
  Blackgrass (1) plant response rating: 0
  Blackgrass (2) plant response rating: 0
[7]; Rate 8 g/ha
  Blackgrass (1) plant response rating: 0
  Blackgrass (2) plant response rating: 0
[7]; Rate 16 g/ha
  Blackgrass (1) plant response rating: 0
  Blackgrass (2) plant response rating: 0
[7]; Rate 32 g/ha
  Blackgrass (1) plant response rating: 0
  Blackgrass (2) plant response rating: 10
[8]; Rate 2 g/ha
  Downy brome plant response rating: 0
[8]; Rate 4 g/ha
  Downy brome plant response rating: 0
[8]; Rate 8 g/ha
  Downy brome plant response rating: 0
[8]; Rate 16 g/ha
  Downy brome plant response rating: 10
[8]; Rate 32 g/ha
  Downy brome plant response rating: 10
[9]; Rate 2 g/ha
  Wheat (Winter) plant response rating: 0
[9]; Rate 4 g/ha
  Wheat (Winter) plant response rating: 10
[9]; Rate 8 g/ha
  Wheat (Winter) plant response rating: 10
[9]; Rate 16 g/ha
  Wheat (Winter) plant response rating: 10
[9]; Rate 32 g/ha
  Wheat (Winter) plant response rating: 20
[10]; Rate 2 g/ha
  Rape plant response rating: 0
[10]; Rate 4 g/ha
  Rape plant response rating: 0
[10]; Rate 8 g/ha
  Rape plant response rating: 0
[10]; Rate 16 g/ha
  Rape plant response rating: 0
[10]; Rate 32 g/ha
  Rape plant response rating: 20
[11]; Rate 2 g/ha
  Sugar beet plant response rating: 70
[11]; Rate 4 g/ha
  Sugar beet plant response rating: 100
[11]; Rate 8 g/ha
  Sugar beet plant response rating: 100
[11]; Rate 32 g/ha
  Sugar beet plant response rating: 100
[12]; Rate 2 g/ha
  Wheat (Spring) plant response rating: 0
[12]; Rate 4 g/ha
  Wheat (Spring) plant response rating: 0
[12]; Rate 8 g/ha
  Wheat (Spring) plant response rating: 0
[12]; Rate 16 g/ha
  Wheat (Spring) plant response rating: 10
[12]; Rate 32 g/ha
  Wheat (Spring) plant response rating: 20
[13]; Rate 2 g/ha
  Wild oat (1) plant response rating: 0
  Wild oat (2) plant response rating: 0
[13]; Rate 4 g/ha
  Wild oat (1) plant response rating: 10
  Wild oat (2) plant response rating: 0
[13]; Rate 8 g/ha
  Wild oat (1) plant response rating: 20
  Wild oat (2) plant response rating: 0
[13]; Rate 16 g/ha
  Wild oat (1) plant response rating: 20
  Wild oat (2) plant response rating: 0
[13]; Rate 32 g/ha
  Wild oat (1) plant response rating: 30
  Wild oat (2) plant response rating: 20

## C#CC(C)N1C(=O)COc2cc(F)c(-c3nn4c(c3Cl)CCCC4)cc21 (stereo not drawn) [Compound 50]
[1]; Rate 16 g/ha
  Ryegrass plant response rating: 0
[1]; Rate 32 g/ha
  Ryegrass plant response rating: 0
[1]; Rate 64 g/ha
  Ryegrass plant response rating: 0
[1]; Rate 125 g/ha
  Ryegrass plant response rating: 10
[2]; Rate 16 g/ha
  Lambsquarters plant response rating: 30
[2]; Rate 32 g/ha
  Lambsquarters plant response rating: 50
[2]; Rate 64 g/ha
  Lambsquarters plant response rating: 100
[2]; Rate 125 g/ha
  Lambsquarters plant response rating: 100
[3]; Rate 16 g/ha
  Persn Speedwell plant response rating: 100
[3]; Rate 32 g/ha
  Persn Speedwell plant response rating: 100
[3]; Rate 64 g/ha
  Persn Speedwell plant response rating: 100
[3]; Rate 125 g/ha
  Persn Speedwell plant response rating: 100
[4]; Rate 16 g/ha
  Sunflower plant response rating: 40
[4]; Rate 32 g/ha
  Sunflower plant response rating: 60
[4]; Rate 64 g/ha
  Sunflower plant response rating: 60
[4]; Rate 125 g/ha
  Sunflower plant response rating: 100
[5]; Rate 16 g/ha
  Wild buckwheat plant response rating: 40
[5]; Rate 32 g/ha
  Wild buckwheat plant response rating: 100
[5]; Rate 64 g/ha
  Wild buckwheat plant response rating: 100
[5]; Rate 125 g/ha
  Wild buckwheat plant response rating: 100
[6]; Rate 16 g/ha
  Galium (1) plant response rating: 100
  Galium (2) plant response rating: 100
[6]; Rate 32 g/ha
  Galium (1) plant response rating: 100
  Galium (2) plant response rating: 100
[6]; Rate 64 g/ha
  Galium (1) plant response rating: 100
  Galium (2) plant response rating: 100
[6]; Rate 125 g/ha
  Galium (1) plant response rating: 100
  Galium (2) plant response rating: 100
[7]; Rate 16 g/ha
  Blackgrass (1) plant response rating: 0
  Blackgrass (2) plant response rating: 0
[7]; Rate 32 g/ha
  Blackgrass (1) plant response rating: 0
  Blackgrass (2) plant response rating: 0
[7]; Rate 64 g/ha
  Blackgrass (1) plant response rating: 0
  Blackgrass (2) plant response rating: 0
[7]; Rate 125 g/ha
  Blackgrass (1) plant response rating: 40
  Blackgrass (2) plant response rating: 20
[8]; Rate 16 g/ha
  Downy brome plant response rating: 0
[8]; Rate 32 g/ha
  Downy brome plant response rating: 0
[8]; Rate 64 g/ha
  Downy brome plant response rating: 0
[8]; Rate 125 g/ha
  Downy brome plant response rating: 0
[9]; Rate 16 g/ha
  Wheat (Winter) plant response rating: 0
[9]; Rate 32 g/ha
  Wheat (Winter) plant response rating: 0
[9]; Rate 64 g/ha
  Wheat (Winter) plant response rating: 0
[9]; Rate 125 g/ha
  Wheat (Winter) plant response rating: 0
[10]; Rate 16 g/ha
  Rape plant response rating: 100
[10]; Rate 32 g/ha
  Rape plant response rating: 100
[10]; Rate 64 g/ha
  Rape plant response rating: 100
[10]; Rate 125 g/ha
  Rape plant response rating: 100
[11]; Rate 16 g/ha
  Sugar beet plant response rating: 100
[11]; Rate 32 g/ha
  Sugar beet plant response rating: 100
[11]; Rate 64 g/ha
  Sugar beet plant response rating: 100
[11]; Rate 125 g/ha
  Sugar beet plant response rating: 100
[12]; Rate 16 g/ha
  Wheat (Spring) plant response rating: 0
[12]; Rate 32 g/ha
  Wheat (Spring) plant response rating: 0
[12]; Rate 64 g/ha
  Wheat (Spring) plant response rating: 0
[12]; Rate 125 g/ha
  Wheat (Spring) plant response rating: 10
[13]; Rate 16 g/ha
  Wild oat (1) plant response rating: 0
  Wild oat (2) plant response rating: 0
[13]; Rate 32 g/ha
  Wild oat (1) plant response rating: 0
  Wild oat (2) plant response rating: 0
[13]; Rate 64 g/ha
  Wild oat (1) plant response rating: 0
  Wild oat (2) plant response rating: 0
[13]; Rate 125 g/ha
  Wild oat (1) plant response rating: 0
  Wild oat (2) plant response rating: 0
